Reference: ChEMBL document CHEMBL1148620 (J Med Chem, 2006)

Tests used:
Melanocortin receptor 4 [1] = target: T1, Melanocortin receptor 4 (Homo sapiens, UniProt P32245, Y287A); experiment: Displacement of [125I]NDP-alpha-MSH from mutant MC4R Y287A expressed in HEK293 cells; type: cell-based
Melanocortin receptor 4 [2] = target: T2, Melanocortin receptor 4 (Homo sapiens, UniProt P32245, Y287F); experiment: Displacement of [125I]NDP-alpha-MSH from mutant MC4R Y287F expressed in HEK293 cells; type: cell-based
Melanocortin receptor 4 [3] = target: T3, Melanocortin receptor 4 (Homo sapiens, UniProt P32245, F184A); experiment: Displacement of [125I]NDP-alpha-MSH from mutant MC4R F184A expressed in HEK293 cells; type: cell-based
Melanocortin receptor 4 [4] = target: T4, Melanocortin receptor 4 (Homo sapiens, UniProt P32245, I125A); experiment: Displacement of [125I]NDP-alpha-MSH from mutant MC4R I125A expressed in HEK293 cells; type: cell-based
Melanocortin receptor 4 [5] = target: T5, Melanocortin receptor 4 (Homo sapiens, UniProt P32245); experiment: Antagonist activity at the human wild type MC4R expressed in HEK293 cells by cAMP accumulation; type: functional, cell-based
Melanocortin receptor 4 [6] = target: T6, Melanocortin receptor 4 (Homo sapiens, UniProt P32245, Y268A); experiment: Antagonist activity at the mutant MC4R Y268A expressed in HEK293 cells by cAMP accumulation; type: functional, cell-based
Melanocortin receptor 4 [7] = target: T7, Melanocortin receptor 4 (Homo sapiens, UniProt P32245, Y268F); experiment: Antagonist activity at the mutant MC4R Y268F expressed in HEK293 cells by cAMP accumulation; type: functional, cell-based
Melanocortin receptor 4 [8] = target: T1, Melanocortin receptor 4; experiment: Antagonist activity at the mutant MC4R Y287A expressed in HEK293 cells by cAMP accumulation; type: functional, cell-based
Melanocortin receptor 4 [9] = target: T2, Melanocortin receptor 4; experiment: Antagonist activity at the mutant MC4R Y287F expressed in HEK293 cells by cAMP accumulation; type: functional, cell-based
Melanocortin receptor 4 [10] = target: T7, Melanocortin receptor 4; experiment: Displacement of [125I]NDP-alpha-MSH from mutant MC4R Y268F expressed in HEK293 cells; type: cell-based
Melanocortin receptor 4 [11] = target: T6, Melanocortin receptor 4; experiment: Displacement of [125I]NDP-alpha-MSH from mutant MC4R Y268A expressed in HEK293 cells; type: cell-based
Melanocortin receptor 4 [12] = target: T3, Melanocortin receptor 4; experiment: Antagonist activity at the mutant MC4R F184A expressed in HEK293 cells by cAMP accumulation; type: functional, cell-based
Melanocortin receptor 4 [13] = target: T4, Melanocortin receptor 4; experiment: Antagonist activity at the mutant MC4R I125A expressed in HEK293 cells by cAMP accumulation; type: functional, cell-based
Melanocortin receptor 4 [14] = target: T8, Melanocortin receptor 4 (Homo sapiens, UniProt P32245, I291A); experiment: Antagonist activity at the mutant MC4R I291A expressed in HEK293 cells by cAMP accumulation; type: functional, cell-based
Melanocortin receptor 4 [15] = target: T5, Melanocortin receptor 4; experiment: biochemical
Melanocortin receptor 4 [16] = target: T9, Melanocortin receptor 4 (Homo sapiens, UniProt P32245, I129A); experiment: biochemical
Melanocortin receptor 4 [17] = target: T5, Melanocortin receptor 4; experiment: Agonist activity at the human wild type MC4R expressed in HEK293 cells by cAMP accumulation; type: functional, cell-based
Melanocortin receptor 4 [18] = target: T6, Melanocortin receptor 4; experiment: Agonist activity at the mutant MC4R Y268A expressed in HEK293 cells by cAMP accumulation; type: functional, cell-based
Melanocortin receptor 4 [19] = target: T7, Melanocortin receptor 4; experiment: Agonist activity at the mutant MC4R Y268F expressed in HEK293 cells by cAMP accumulation; type: functional, cell-based
Melanocortin receptor 4 [20] = target: T1, Melanocortin receptor 4; experiment: Agonist activity at the mutant MC4R Y287A expressed in HEK293 cells by cAMP accumulation; type: functional, cell-based
Melanocortin receptor 4 [21] = target: T2, Melanocortin receptor 4; experiment: Agonist activity at the mutant MC4R Y287F expressed in HEK293 cells by cAMP accumulation; type: functional, cell-based
Melanocortin receptor 4 [22] = target: T3, Melanocortin receptor 4; experiment: Agonist activity at the mutant MC4R F184A expressed in HEK293 cells by cAMP accumulation; type: functional, cell-based
Melanocortin receptor 4 [23] = target: T4, Melanocortin receptor 4; experiment: Agonist activity at the mutant MC4R I125A expressed in HEK293 cells by cAMP accumulation; type: functional, cell-based
Melanocortin receptor 4 [24] = target: T8, Melanocortin receptor 4; experiment: Agonist activity at the mutant MC4R I291A expressed in HEK293 cells by cAMP accumulation; type: functional, cell-based
Melanocortin receptor 4 [25] = target: T9, Melanocortin receptor 4

T7 sequence (P32245 whole entry Y268F): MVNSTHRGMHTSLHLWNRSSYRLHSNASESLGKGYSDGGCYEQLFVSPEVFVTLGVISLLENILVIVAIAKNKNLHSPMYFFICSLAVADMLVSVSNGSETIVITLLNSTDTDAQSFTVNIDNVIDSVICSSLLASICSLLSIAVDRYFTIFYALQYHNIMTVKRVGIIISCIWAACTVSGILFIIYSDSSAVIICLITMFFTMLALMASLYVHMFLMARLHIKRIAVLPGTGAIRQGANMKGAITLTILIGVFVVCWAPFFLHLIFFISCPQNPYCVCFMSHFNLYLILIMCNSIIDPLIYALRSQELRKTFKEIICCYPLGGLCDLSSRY
T6 sequence (P32245 whole entry Y268A): as the sequence (P32245 whole entry Y268F) above, with F268A counted along it
T5 sequence (P32245 whole entry): as the sequence (P32245 whole entry Y268F) above, with F268Y counted along it
T2 sequence (P32245 whole entry Y287F): as the sequence (P32245 whole entry Y268F) above, with F268Y, Y287F counted along it
T4 sequence (P32245 whole entry I125A): as the sequence (P32245 whole entry Y268F) above, with I125A, F268Y counted along it
T3 sequence (P32245 whole entry F184A): as the sequence (P32245 whole entry Y268F) above, with F184A, F268Y counted along it
T1 sequence (P32245 whole entry Y287A): as the sequence (P32245 whole entry Y268F) above, with F268Y, Y287A counted along it
T8 sequence (P32245 whole entry I291A): as the sequence (P32245 whole entry Y268F) above, with F268Y, I291A counted along it
T9 sequence (P32245 whole entry I129A): as the sequence (P32245 whole entry Y268F) above, with I129A, F268Y counted along it

| Compound | Ki (Melanocortin receptor 4 [1]) [nM] | Ki (Melanocortin receptor 4 [2]) [nM] | Ki (Melanocortin receptor 4 [3]) [nM] | Ki (Melanocortin receptor 4 [4]) [nM] | Ki (Melanocortin receptor 4 [10]) [nM] | Ki (Melanocortin receptor 4 [11]) [nM] | Ki (Melanocortin receptor 4 [15]) [nM] | Ki (Melanocortin receptor 4 [16]) [nM] | EC50 (Melanocortin receptor 4 [17]) [nM] | EC50 (Melanocortin receptor 4 [18]) [nM] | EC50 (Melanocortin receptor 4 [19]) [nM] | EC50 (Melanocortin receptor 4 [20]) [nM] | EC50 (Melanocortin receptor 4 [21]) [nM] | EC50 (Melanocortin receptor 4 [22]) [nM] | EC50 (Melanocortin receptor 4 [23]) [nM] | EC50 (Melanocortin receptor 4 [24]) [nM] | EC50 (Melanocortin receptor 4 [25]) [nM] | other results |
| --- | --- | --- | --- | --- | --- | --- | --- | --- | --- | --- | --- | --- | --- | --- | --- | --- | --- | --- |
| CC[C@H](C)[C@@H]1NC(=O)[C@H]([C@@H](C)O)NC(=O)[C@H](Cc2c[nH]c3ccccc23)NC(=O)[C@H](CCCN=C(N)N)NC(=O)[C@@H](Cc2cccc3ccccc23)NC(=O)[C@H](Cc2c[nH]cn2)NC(=O)[C@H]([C@@H](C)O)NC(=O)[C@H](Cc2ccc(O)cc2)NC(=O)[C@H]([C@@H](C)O)NC(=O)[C@@H]2CCCN2C1=O | 18 | 1.7 | 0.71 | 1.3 | 0.92 | 40 | 1.5 | 14 |  |  |  |  |  |  |  |  |  | IC50 (Melanocortin receptor 4 [5]): 16 nM; IC50 (Melanocortin receptor 4 [6]): 248 nM; IC50 (Melanocortin receptor 4 [7]): 17 nM; IC50 (Melanocortin receptor 4 [8]): 121 nM; IC50 (Melanocortin receptor 4 [9]): 8.8 nM; IC50 (Melanocortin receptor 4 [12]): 11 nM; IC50 (Melanocortin receptor 4 [13]): 5.8 nM; IC50 (Melanocortin receptor 4 [14]): 22 nM |
| CN(C)[C@H]1C[C@@H](C(=O)N2CCC(Cn3cncn3)(C3CCCCC3)CC2)[C@H](c2ccc(Cl)cc2)C1 | 2120 | 890 | 114 | 1250 | 275 | 1020 | 305 | 3100 | 9.5 | 33 | 6.6 | 418 | 10 | 1.02 | 53 | > 1000 | 1520 |  |
| CC[C@H](C)[C@@H]1NC(=O)[C@H]([C@@H](C)O)NC(=O)[C@H](Cc2c[nH]c3ccccc23)NC(=O)[C@H](CCCN=C(N)N)NC(=O)[C@@H](Cc2ccccc2)NC(=O)[C@H](Cc2cnc[nH]2)NC(=O)[C@H]([C@@H](C)O)NC(=O)[C@H](Cc2ccc(O)cc2)NC(=O)[C@H](CO)NC(=O)[C@@H]2CCCN2C1=O | 1490 | 90 | 29 | 111 | 83 | 1370 | 59 | 710 | 11 | 270 | 12 | 328 | 9.5 | 3.2 | 202 | 250 | 250 |  |
